From patent EP0810221A1 (MITSUBISHI CHEMICAL CORPORATION, priority 1995, dated 1996)
pIC50: −log10 of the molar value.

How the values were obtained:
m-Calpain = target: T1, m-Calpain (Rattus norvegicus, UniProt Q07009); assay: Inhibitory activity against calpain (m-Calpain purified from brains of rats); assay type: biochemical
T1 construct: m-Calpain was purified from brains of rats; from tissue; host or cells: rat brain
T1 sequence (Q07009 20-700 limits assumed): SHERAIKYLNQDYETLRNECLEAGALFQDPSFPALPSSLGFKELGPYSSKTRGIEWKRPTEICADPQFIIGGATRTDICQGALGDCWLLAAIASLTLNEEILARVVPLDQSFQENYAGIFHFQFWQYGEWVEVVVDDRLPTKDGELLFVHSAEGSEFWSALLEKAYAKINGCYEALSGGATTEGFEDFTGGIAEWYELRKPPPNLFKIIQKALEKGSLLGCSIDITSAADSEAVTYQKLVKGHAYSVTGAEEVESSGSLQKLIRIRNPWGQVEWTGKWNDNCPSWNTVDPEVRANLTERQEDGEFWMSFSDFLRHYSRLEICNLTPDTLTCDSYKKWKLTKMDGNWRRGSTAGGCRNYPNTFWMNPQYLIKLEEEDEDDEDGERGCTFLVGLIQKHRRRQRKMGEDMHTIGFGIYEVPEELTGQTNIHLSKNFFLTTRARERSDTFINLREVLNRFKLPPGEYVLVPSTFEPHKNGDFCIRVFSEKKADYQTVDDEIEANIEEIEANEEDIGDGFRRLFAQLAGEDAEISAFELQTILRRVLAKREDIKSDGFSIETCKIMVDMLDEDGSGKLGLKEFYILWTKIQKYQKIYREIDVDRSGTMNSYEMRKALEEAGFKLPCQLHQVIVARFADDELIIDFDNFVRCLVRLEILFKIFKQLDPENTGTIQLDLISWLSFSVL
T1 sequence (Q64537 1-270 partner): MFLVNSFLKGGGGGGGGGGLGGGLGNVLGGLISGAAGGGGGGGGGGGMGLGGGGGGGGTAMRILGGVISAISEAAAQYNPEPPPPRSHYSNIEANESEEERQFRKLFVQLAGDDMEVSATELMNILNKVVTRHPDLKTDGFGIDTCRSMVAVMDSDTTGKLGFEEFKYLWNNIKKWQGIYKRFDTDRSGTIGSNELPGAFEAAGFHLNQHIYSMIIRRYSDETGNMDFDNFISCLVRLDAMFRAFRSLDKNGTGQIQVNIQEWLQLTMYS
Procedure: m-Calpain was purified from brains of rats according to a method described in a literature (Journal of Biological Chemistry, Vol. 259, p. 3210, 1984), and the inhibitory activity was determined in a manner according to a published method (Journal of Biological Chemistry, Vol. 259, p. 12489, 1984).

[1] = target: T2, cathepsin B (Sigma, C-6286) (Bos taurus, UniProt P07688); assay: Inhibitory activity against cathepsin B; assay type: biochemical; conditions: Inhibitory activity against cathepsin B (Table-5)
T2 construct: purchased Sigma C-6286
Procedure: Inhibitory activity against cathepsin B (Sigma, C-6286) was determined according to a method described in a literature (Biochemical Journal, Vol. 201, p. 189, 1982).

[2] = Inhibitory activity against calpain (Table-6)
[3] = Inhibitory activity against calpain (continuation of Table-6)

SMILES	pIC50 (m-Calpain; [2])	pIC50 [1]	pIC50 (m-Calpain; [3])
COc1ccccc1COC(=O)N[C@@H](CC(C)C)C(=O)N[C@H]1CCOC1O (stereo partly drawn) [Example 20, (3S)-3-{(S)-2-(2-methoxybenzyloxycarbonylamino)-4-methylvalerylamino)-2-tetrahydrofuranol]	6.25	5.98	
CC(C)C[C@H](NS(=O)(=O)c1ccccc1)C(=O)N[C@H]1CCOC1O (stereo partly drawn) [Example 1, (3S)-3-((S)-4-methyl-2-phenylsulfonylaminovalerylamino)-2-tetrahydrofuranol]	6.21	6.38	
Cc1ccc(COC(=O)N[C@@H](CC(C)C)C(=O)N[C@H]2CCOC2O)cc1 (stereo partly drawn) [Example 19, (3S)-3-{(S)-4-methyl-2-(4-methylbenzyloxycarbonylamino)valerylamino}-2-tetrahydrofuranol]	6.32	6.05	
COc1ccc(C(=O)N[C@@H](CC(C)C)C(=O)N[C@H]2CCOC2O)cc1 (stereo partly drawn) [Example 53, (3S)-3-{(S)-2-(4-methoxybenzoylamino)-4-methylvalerylamino}-2-tetrahydrofuranol]	6.17	6.82	
CC(C)C[C@H](NC(=O)COc1ccccc1)C(=O)N[C@H]1CCOC1O (some centres unmarked) [Example 34]	6.48	5.87	
CCOc1ccc(C(=O)N[C@@H](CC(C)C)C(=O)N[C@H]2CCOC2O)cc1 (stereo partly drawn) [Example 57, (3S)-3-{(S)-2-(4-ethoxybenzoylamino)-4-methylvalerylamino}-2-tetrahydrofuranol]		6.62	6.60
CC(C)C[C@H](NC(=O)OCc1ccc(F)cc1)C(=O)N[C@H]1CCOC1O (stereo partly drawn) [Example 15, (3S)-3-{(S)-2-(4-fluorobenzyloxycarbonylamino)-4-methylvalerylamino}-2-tetrahydrofuranol]	6.17	6.15	
CC(C)C[C@H](NC(=O)c1ccc2ccccc2c1)C(=O)N[C@H]1CCOC1O (stereo partly drawn) [Example 60, (3S)-3-{(S)-4-methyl-2-(2-naphthoylamino)valerylamino}-2-tetrahydrofuranol]		7.47	6.33
CC(C)C[C@H](NC(=O)OCc1ccccc1)C(=O)N[C@H]1CCCOC1O (some centres unmarked) [Example 81]			5.81
COC(=O)N[C@@H](CC(C)C)C(=O)NC1CCOC1O (stereo partly drawn) [Example 9, 3-((S)-2-methoxycarbonylamino-4-methylvalerylamino)-2-tetrahydrofuranol]	5.81		
Cc1ccc(S(=O)(=O)N[C@@H](CC(C)C)C(=O)N[C@H]2CCOC2O)cc1 (stereo partly drawn) [Example 70, (3S)-3-{(S)-4-methyl-2-(4-methylphenylsulfonylamino)valerylamino}-2-tetrahydrofuranol]			6.30
CC(C)C[C@H](NS(=O)(=O)c1ccc(Br)cc1)C(=O)N[C@H]1CCOC1O (stereo partly drawn) [Example 69, (3S)-3-{(S)-2-(4-bromophenylsulfonylamino)-4-methylvalerylamino}-2-tetrahydrofuranol]			6.21
O=C(N[C@@H](Cc1ccccc1)C(=O)N[C@H]1CCOC1O)OCc1ccccc1 (stereo partly drawn) [Example 78, (3S)-3-((S)-2-benzyloxycarbonylamino-3-phenylpropionylamino)-2-tetrahydrofuranol]		6.52	
CC(C)C[C@H](NC(=O)c1ccccc1F)C(=O)N[C@H]1CCOC1O (stereo partly drawn) [Example 40, (3S)-3-{(S)-2-(2-fluorobenzoylamino)-4-metylvalerylamino}-2-tetrahydrofuranol]		6.00	
CC(C)C[C@H](NC(=O)C1CCc2ccccc2O1)C(=O)N[C@H]1CCOC1O (some centres unmarked) [Example 63]			6.46
Cc1cc(C)c(S(=O)(=O)N[C@@H](CC(C)C)C(=O)N[C@H]2CCOC2O)c(C)c1 (stereo partly drawn) [Example 71, (3S)-3-{(S)-4-methyl-2-(2,4,6-trimethylphenylsulfonylamino)valerylamino}-2-tetrahydrofuranol]			6.35
CC(C)C[C@H](NS(=O)(=O)c1cccc([N+](=O)[O-])c1)C(=O)N[C@H]1CCOC1O (stereo partly drawn) [Example 74, (3S)-3-{(S)-4-methyl-2-(3-nitrophenylsulfonylamino)valerylamino}-2-tetrahydrofuranol]			6.02
Cc1cc(C)c(C(=O)N[C@@H](CC(C)C)C(=O)N[C@H]2CCOC2O)c(C)c1 (stereo partly drawn) [Example 49, (3S)-3-{(S)-4-methyl-2-(2,4,6-trimethylbenzoylamino)valerylamino}-2-tetrahydrofuranol]	6.17		
Cc1ccc(C(=O)N[C@@H](CC(C)C)C(=O)N[C@H]2CCOC2O)cc1 (stereo partly drawn) [Example 46, (3S)-3-{(S)-4-methyl-2-(4-methylbenzoylamino)valerylamino}-2-tetrahydorofuranol]		6.57	
CC(C)C[C@H](NS(=O)(=O)c1ccc(C(C)(C)C)cc1)C(=O)N[C@H]1CCOC1O (stereo partly drawn) [Example 72, (3S)-3-{(S)-2-(4-tert-butylphenylsulfonylamino)-4-methylvalerylamino}-2-tetrahydrofuranol]			6.41
COc1ccc(S(=O)(=O)N[C@@H](CC(C)C)C(=O)N[C@H]2CCOC2O)cc1 (stereo partly drawn) [Example 73, (3S)-3-{(S)-2-(4-methoxyphenylsulfonylamino)-4-methylvalerylamino}-2-tetrahydrofuranol]			6.13
CC(C)C[C@H](NC(=O)OCC1c2ccccc2-c2ccccc21)C(=O)N[C@H]1CCOC1O (stereo partly drawn) [Example 22, (3S)-3-{(S)-2-(9-fluorenylmethoxycarbonylamino)-4-methylvalerylamino}-2-tetrahydrofuranol]	6.39		
CC(C)C[C@H](NC(=O)OCc1cccc[n+]1[O-])C(=O)NC1CCOC1O (stereo partly drawn) [Example 26, 3-{(S)-4-methyl-2-(2-pyridylmethoxycarbonylamino)valerylamino)-2-tetrahydrofuranol N-oxide]	5.85		
Cc1cccc(C)c1C(=O)N[C@@H](CC(C)C)C(=O)N[C@H]1CCOC1O (stereo partly drawn) [Example 47, (3S)-3-{(S)-2-(2,6-dimethylbenzoylamino)-4-methylvalerylamino)-2-tetrahydrofuranol]	5.64		
COc1ccccc1C(=O)N[C@@H](CC(C)C)C(=O)N[C@H]1CCOC1O (stereo partly drawn) [Example 52, (3S)-3-{(S)-2-(2-methoxybenzoylamino)-4-methylvalerylamino)-2-tetrahydrofuranol]	6.47		
CC(C)C[C@H](NS(=O)(=O)c1ccc(F)cc1)C(=O)N[C@H]1CCOC1O (stereo partly drawn) [Example 66, (3S)-3-{(S)-2-(4-fluorophenylsulfonylamino)-4-methylvalerylamino}-2-tetrahydrofuranol]			6.22
COc1ccc(C(=O)N[C@@H](CC(C)C)C(=O)N[C@H]2CCOC2O)c(OC)c1 (stereo partly drawn) [Example 54, (3S)-3-{(S)-2-(2,4-dimethoxybenzoylamino)-4-methylvalerylamino}-2-tetrahydrofuranol]	6.15		
CC(C)C[C@H](NC(=O)OCC1CCCO1)C(=O)N[C@H]1CCOC1O (stereo partly drawn) [Example 23, (3S)-3-((S)-4-methyl-2-tetrahydrofurfuryloxycarbonylaminovalerylamino)-2-tetrahydrofuranol]	5.96		
CC(C)C[C@H](NS(=O)(=O)c1ccc(Cl)cc1)C(=O)N[C@H]1CCOC1O (stereo partly drawn) [Example 68, (3S)-3-{(S)-2-(4-chlorophenylsulfonylamino)-4-methylvalerylamino}-2-tetrahydrofuranol]			6.25
CC(C)C[C@H](NS(=O)(=O)c1ccccc1)C(=O)N[C@H]1C(C)COC1O (stereo partly drawn) [Example 80, (3S)-4-methyl-3-((S)-4-methyl-2-phenylsulfonylaminovalerylamino)-2-tetrahydrofuranol]			5.55
